Test results published in ChEMBL document CHEMBL1130223 (J Med Chem, 1997).
Activity calls are given as the source filed them. The calls are words filed in the database; no cut-off is given here.

Columns and labels:
[1] = target: T1, Serotonin 3 (5-HT3) receptor (Rattus norvegicus, UniProt P35563+Q9JJ16); assay: Inhibition of [3H]BRL-43694 binding to 5-hydroxytryptamine 3 receptor of rat cortical homogenate.
T1 sequence (P35563 whole entry): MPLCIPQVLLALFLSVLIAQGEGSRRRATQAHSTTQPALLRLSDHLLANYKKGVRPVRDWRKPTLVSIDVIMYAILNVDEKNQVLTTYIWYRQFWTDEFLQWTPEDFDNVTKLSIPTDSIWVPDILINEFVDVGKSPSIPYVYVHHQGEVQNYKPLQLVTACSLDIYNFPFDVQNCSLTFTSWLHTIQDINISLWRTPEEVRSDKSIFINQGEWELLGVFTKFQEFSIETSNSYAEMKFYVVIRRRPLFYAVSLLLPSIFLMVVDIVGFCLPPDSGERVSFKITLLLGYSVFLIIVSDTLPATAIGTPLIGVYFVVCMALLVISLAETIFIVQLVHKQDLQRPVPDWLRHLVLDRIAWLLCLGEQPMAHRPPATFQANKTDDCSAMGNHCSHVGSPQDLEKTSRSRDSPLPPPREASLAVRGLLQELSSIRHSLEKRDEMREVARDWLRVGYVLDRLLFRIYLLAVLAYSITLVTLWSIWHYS
T1 sequence (Q9JJ16 whole entry): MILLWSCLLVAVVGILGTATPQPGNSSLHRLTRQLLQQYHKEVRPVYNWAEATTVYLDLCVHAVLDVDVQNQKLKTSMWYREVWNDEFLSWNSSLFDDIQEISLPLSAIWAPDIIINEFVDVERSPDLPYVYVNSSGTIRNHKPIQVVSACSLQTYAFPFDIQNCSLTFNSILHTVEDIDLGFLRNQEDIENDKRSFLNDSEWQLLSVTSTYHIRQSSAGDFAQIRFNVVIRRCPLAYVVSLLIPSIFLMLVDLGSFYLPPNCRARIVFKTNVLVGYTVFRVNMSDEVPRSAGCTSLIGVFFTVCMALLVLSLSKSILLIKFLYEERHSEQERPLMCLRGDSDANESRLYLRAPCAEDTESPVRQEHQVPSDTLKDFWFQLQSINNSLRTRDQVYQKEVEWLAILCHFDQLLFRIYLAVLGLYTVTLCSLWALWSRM

NG108-15 [2] = assay: Effective concentration for uptake of [14C]guanidinium on NG108-15 cells; assay type: functional, cell-based; conditions: Murinae
NG108-15 [3] = assay: Agonist/antagonist activity by observing the uptake of [14C]guanidinium, on the neuroblastoma-glioma hybrid NG108-15 cells; pure agonist; assay type: functional, cell-based; conditions: filed as agonist
[4] = target: T2, Serotonin 3 (5-HT3) receptor (Rattus norvegicus) (UniProt P35563+Q9JJ16); assay: The stimulation of cardiac 5-HT3 receptors evaluated by using von Bezold-Jarisch reflex test in urethane-anesthetized rats; Partial agonist; assay type: functional; conditions: filed as partial agonist
[5] = target: T2, Serotonin 3 (5-HT3) receptor (Rattus norvegicus); assay: Dose required to stimulate cardiac 5-HT3 receptors evaluated by using von Bezold-Jarisch reflex test in urethane-anesthetized rats after intravenous administration; assay type: functional, organism-based
[6] = target: T3, 5-hydroxytryptamine receptor 1A (Rattus norvegicus, UniProt P19327); assay: Inhibition of radiolabeled [3H]-8-OH-DPAT ligand binding to 5-hydroxytryptamine 1A receptor
T3 sequence (P19327 whole entry): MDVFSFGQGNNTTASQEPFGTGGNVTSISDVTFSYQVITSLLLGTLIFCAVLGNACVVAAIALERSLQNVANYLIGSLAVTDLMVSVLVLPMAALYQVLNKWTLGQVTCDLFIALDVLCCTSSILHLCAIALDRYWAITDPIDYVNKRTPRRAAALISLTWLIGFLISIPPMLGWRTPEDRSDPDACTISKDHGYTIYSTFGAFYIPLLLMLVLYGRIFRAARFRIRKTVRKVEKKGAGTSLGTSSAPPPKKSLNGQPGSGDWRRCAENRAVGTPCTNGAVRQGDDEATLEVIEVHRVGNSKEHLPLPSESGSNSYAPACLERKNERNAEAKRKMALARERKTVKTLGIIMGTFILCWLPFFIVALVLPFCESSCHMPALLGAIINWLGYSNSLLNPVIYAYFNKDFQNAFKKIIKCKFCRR

[7] = target: 5-hydroxytryptamine receptor 1B (Rattus norvegicus, UniProt P28564); assay: Inhibition of radiolabeled [3H]-5-HT ligand binding to 5-hydroxytryptamine 1B receptor
[8] = target: 5-hydroxytryptamine receptor 2A (Rattus norvegicus, UniProt P14842); assay: Inhibition of radiolabeled [3H]-Ketanserin ligand binding to 5-hydroxytryptamine 2A receptor
[9] = target: T4, 5-hydroxytryptamine receptor 2C (Rattus norvegicus, UniProt P08909); assay: Inhibition of radiolabeled [3H]mesulergine ligand binding to 5-hydroxytryptamine 2C receptor
T4 sequence (P08909 whole entry): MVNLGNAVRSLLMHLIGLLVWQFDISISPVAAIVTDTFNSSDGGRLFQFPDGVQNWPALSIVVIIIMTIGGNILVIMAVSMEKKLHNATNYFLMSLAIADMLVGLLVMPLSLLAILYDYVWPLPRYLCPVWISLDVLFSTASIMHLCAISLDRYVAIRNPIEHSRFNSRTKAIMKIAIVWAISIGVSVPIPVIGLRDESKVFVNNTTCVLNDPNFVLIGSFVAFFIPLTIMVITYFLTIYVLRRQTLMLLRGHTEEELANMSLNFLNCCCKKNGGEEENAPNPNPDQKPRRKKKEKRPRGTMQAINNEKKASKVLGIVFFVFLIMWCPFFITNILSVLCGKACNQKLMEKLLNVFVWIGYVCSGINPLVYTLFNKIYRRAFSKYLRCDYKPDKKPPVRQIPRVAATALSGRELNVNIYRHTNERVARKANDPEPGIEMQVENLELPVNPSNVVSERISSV

[10] = target: 5-hydroxytryptamine receptor 4 (Rattus norvegicus, UniProt Q62758); assay: Inhibition of radiolabeled [3H]GR-113808 ligand binding to 5-hydroxytryptamine 4 receptor
[11] = target: T2, Serotonin 3 (5-HT3) receptor (Rattus norvegicus); assay: The stimulation of cardiac 5-HT3 receptors evaluated by using von Bezold-Jarisch reflex test in urethane-anesthetized rats; pure antagonist; assay type: functional; conditions: filed as antagonist
Rattus norvegicus = species on record: Rattus norvegicus; assay: Inhibitory activity for 5-HT uptake was determined using [3H]- Citalopram; assay type: functional
[12] = target: T2, Serotonin 3 (5-HT3) receptor (Rattus norvegicus); assay: The stimulation of cardiac 5-HT3 receptors evaluated by using von Bezold-Jarisch reflex test in urethane-anesthetized rats; partial agonist; assay type: functional; conditions: filed as partial agonist
[13] = target: T2, Serotonin 3 (5-HT3) receptor (Rattus norvegicus); assay: The stimulation of cardiac 5-HT3 receptors evaluated by using von Bezold-Jarisch reflex test in urethane-anesthetized rats; pure agonist; assay type: functional; conditions: filed as agonist
[14] = target: T2, Serotonin 3 (5-HT3) receptor (Rattus norvegicus); assay: Dose required to stimulate cardiac 5-HT3 receptors evaluated by using von Bezold-Jarisch reflex test in urethane-anesthetized rats; assay type: functional
[15] = Potency to cross blood-brain barrier was assessed; assay type: functional
[16] = target: T2, Serotonin 3 (5-HT3) receptor (Rattus norvegicus); assay: The stimulation of cardiac 5-HT3 receptors evaluated by using von Bezold-Jarisch reflex test inurethane-anesthetized rats; Pure Antagonist; assay type: functional; conditions: filed as antagonist
[17] = target: T4, 5-hydroxytryptamine receptor 2C; assay: Inhibition of radiolabeled [3H]-Ketanserin ligand binding to 5-hydroxytryptamine 2C receptor
[18] = target: T1, Serotonin 3 (5-HT3) receptor; assay: Inhibition of radiolabeled [3H]-Zacopride ligand binding to 5-hydroxytryptamine 3 receptor; assay type: protein-complex assay
[19] = target: T1, Serotonin 3 (5-HT3) receptor; assay: Inhibition of [3H]BRL-43694 binding to 5-hydroxytryptamine 3 receptor of rat cortical homogenate; Not active at 10000 nm
NG108-15 [20] = assay: Agonist/antagonist activity by observing the uptake of [14C]guanidinium, on the neuroblastoma-glioma hybrid NG108-15 cells; Not active at 10000 nm; assay type: functional, cell-based

Chain of 5-hydroxytryptamine receptor 2A (P14842 whole entry): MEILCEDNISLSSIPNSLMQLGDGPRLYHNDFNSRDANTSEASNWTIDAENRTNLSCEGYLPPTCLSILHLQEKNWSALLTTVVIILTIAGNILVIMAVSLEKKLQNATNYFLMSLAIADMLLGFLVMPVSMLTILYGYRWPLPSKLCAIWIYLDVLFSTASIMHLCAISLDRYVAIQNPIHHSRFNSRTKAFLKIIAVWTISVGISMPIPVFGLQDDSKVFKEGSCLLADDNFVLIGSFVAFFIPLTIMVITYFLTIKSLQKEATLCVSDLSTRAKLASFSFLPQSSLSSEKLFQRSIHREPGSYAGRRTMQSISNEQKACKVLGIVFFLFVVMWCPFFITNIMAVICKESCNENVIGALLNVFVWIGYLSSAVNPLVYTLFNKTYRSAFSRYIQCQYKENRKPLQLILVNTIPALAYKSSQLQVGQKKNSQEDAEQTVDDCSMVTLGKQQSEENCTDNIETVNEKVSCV
Chain of 5-hydroxytryptamine receptor 4 (Q62758 whole entry): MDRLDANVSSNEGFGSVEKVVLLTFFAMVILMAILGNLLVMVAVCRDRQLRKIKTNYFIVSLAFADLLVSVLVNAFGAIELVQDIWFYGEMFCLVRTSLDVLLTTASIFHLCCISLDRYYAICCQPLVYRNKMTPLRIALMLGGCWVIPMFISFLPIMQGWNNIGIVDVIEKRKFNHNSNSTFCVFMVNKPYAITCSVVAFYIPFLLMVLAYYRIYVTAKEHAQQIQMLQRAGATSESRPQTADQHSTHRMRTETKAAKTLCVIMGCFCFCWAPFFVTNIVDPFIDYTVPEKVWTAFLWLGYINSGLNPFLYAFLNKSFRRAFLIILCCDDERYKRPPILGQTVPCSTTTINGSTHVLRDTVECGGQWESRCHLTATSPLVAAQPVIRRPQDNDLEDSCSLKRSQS
Chain of 5-hydroxytryptamine receptor 1B (P28564 whole entry): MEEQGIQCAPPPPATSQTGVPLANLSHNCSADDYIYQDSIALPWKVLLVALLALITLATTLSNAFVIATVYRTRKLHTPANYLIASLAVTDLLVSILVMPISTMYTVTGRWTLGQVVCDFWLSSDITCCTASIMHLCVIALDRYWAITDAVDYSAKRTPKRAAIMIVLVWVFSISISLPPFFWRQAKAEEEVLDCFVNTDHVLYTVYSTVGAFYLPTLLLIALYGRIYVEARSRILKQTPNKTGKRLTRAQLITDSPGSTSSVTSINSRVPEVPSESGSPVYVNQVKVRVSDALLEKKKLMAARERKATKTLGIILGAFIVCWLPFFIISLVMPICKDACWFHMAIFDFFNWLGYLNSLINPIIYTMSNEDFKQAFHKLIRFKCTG

| Structure (SMILES) | IC50 [1] [nM] | EC50 (NG108-15 [2]) [nM] | Efficacy (NG108-15 [3]) | ID50 [5] [mg/kg] | IC50 (Rattus norvegicus) [nM] | other results |
| --- | --- | --- | --- | --- | --- | --- |
| CN1CCN(c2nc3cccc(F)c3n3cccc23)CC1 | 0.44 | 6.5 | Agonist | 0.12 |  | Behavior [4]: Partial agonist |
| Fc1cccc2nc(N3CCNCC3)c3cccn3c12 | 3.9 | 98 | Agonist | 0.07 | 1130 | IC50 [6]: 268 nM; IC50 [7]: 106 nM; IC50 [8]: 761 nM; IC50 [9]: 784 nM; IC50 [10]: > 10000 nM; Behavior [11]: Antagonist |
| CCN1CCN(c2nc3ccccc3n3cccc23)CC1 | 9 | 8 | Agonist | 0.1 |  | Behavior [11]: Antagonist |
| NCCc1c[nH]c2ccc(O)cc12 [SEROTONIN] |  |  |  |  | 369 |  |
| C=CCN1CCN(c2nc3cccc(F)c3n3cccc23)CC1 | 28 | 30 | Agonist | 0.075 |  | Behavior [4]: Partial agonist |
| CCCN1CCN(c2nc3cc(F)ccc3n3cccc23)CC1 | 88 | 580 | Agonist | 0.2 |  | Behavior [12]: Partial agonist |
| CN1CCN(c2nc3c(F)cccc3n3cccc23)CC1 | 9.5 | 4.7 | Agonist | 0.12 |  | Behavior [4]: Partial agonist |
| C=CCN1CCN(c2nc3ccccc3n3cccc23)CC1 | 11 | 8.2 | Agonist | 0.18 |  | Behavior [12]: Partial agonist |
| CCCN1CCN(c2nc3cccc(F)c3n3cccc23)CC1 | 82 | 73 | Agonist | 0.3 |  | Behavior [4]: Partial agonist |
| CN1CCN(c2cnc3ccccc3n2)CC1 | 22 | 510 | Agonist | 0.06 |  | Behavior [13]: Agonist |
| CN1CCN(c2nc3cc(F)ccc3n3cccc23)CC1 | 0.81 | 3 | Agonist |  | 232 | IC50 [6]: 138 nM; IC50 [7]: 371 nM; IC50 [8]: 124 nM; IC50 [9]: 413 nM; IC50 [10]: > 10000 nM; ID50 [14]: 0.6 mg/kg; Ratio [15]: 17.5; Behavior [16]: Antagonist |
| Fc1ccc2c(c1)nc(N1CCNCC1)c1cccn12 | 5.4 | 3.5 | Agonist | 0.01 | 203 | IC50 [6]: 151 nM; IC50 [7]: 167 nM; IC50 [8]: 489 nM; IC50 [9]: 2800 nM; IC50 [10]: > 10000 nM; Behavior [11]: Antagonist; Ratio [15]: 37.5 |
| CN1CCN(c2nc3ccccc3n3cccc23)CC1 |  | 10 | Agonist |  | 214 | IC50 [6]: 89 nM; IC50 [7]: 232 nM; IC50 [8]: 43 nM; IC50 [9]: 780 nM; IC50 [10]: > 10000 nM |
| c1ccc2nc(N3CCNCC3)ccc2c1 [QUIPAZINE] | 6.2 | 25 | Agonist |  | 204 | IC50 [7]: 380 nM; IC50 [8]: 1400 nM; IC50 [9]: 470 nM; IC50 [10]: > 10000 nM |
| CCC(CC)NC(=O)[C@@H]1C=C2c3cccc4c3c(cn4C)C[C@H]2N(C)C1 [METHSERGIDE] |  |  |  |  |  | IC50 [17]: 3.1 nM |
| Cc1[nH]c2ccc(O)cc2c1CCN | 779 |  |  |  |  |  |
| CCCN1CCN(c2nc3ccccc3n3cccc23)CC1 | 51 | 8.5 | Agonist | 0.24 |  | Behavior [4]: Partial agonist |
| CN1C[C@@H](NS(=O)(=O)N(C)C)C[C@@H]2c3cccc4c3c(cn4C)C[C@H]21 [MESULERGINE] |  |  |  |  |  | IC50 [18]: 2.13 nM |
| C=CCN1CCN(c2nc3cc(F)ccc3n3cccc23)CC1 | 22 | 76 | Agonist | 0.1 |  | Behavior [12]: Partial agonist |
| CN1CCN(c2nc3cc(C(F)(F)F)ccc3n3cccc23)CC1 |  |  |  |  |  | IC50 [19]: Not Active; Efficacy (NG108-15 [20]): inactive |
